Literature values in patent US20240043928A1, “BIOMARKERS FOR MYELODYSPLASTIC SYNDROME (MDS) AND METHODS OF USING THE SAME” (Eisai R&D Management Co., Ltd., priority 2020, published 2024).

Details: subjects of a prior phase 1 trial; cited from earlier work

Structure (SMILES): CC[C@H](O)[C@@H](C)[C@H]1O[C@@H]1C[C@@](C)(O)/C=C/C=C(\C)[C@H]1OC(=O)C[C@H](O)CC[C@@](C)(O)[C@@H](OC(=O)N2CCN(C3CCCCCC3)CC2)/C=C/[C@@H]1C [Compound E7107]
- visual loss: visual loss was observed
